According to the Bradley open melting point set (2014):
Several values for one entry are separate records, joined by “and”; a condition that tells them apart may be missing. Equal entries are not always repeated.

Compound	melting point
CO[C@H]1C=CO[C@@]2(C)Oc3c(C)c(O)c4c(O)c(c(/C=N/N5CCN(C)CC5)c(O)c4c3C2=O)NC(=O)C(C)=CC=C[C@H](C)[C@H](O)[C@@H](C)[C@H](O)[C@H](C)[C@H](OC(C)=O)[C@@H]1C [Rifampin]	183 °C
O=Cc1ccccc1O [Salicylaldehyde]	1.5 °C
NC(=O)c1ccccc1O [Salicylamide]	140 °C
O=C(O)c1ccccc1O [Salicylic acid]	159 °C
O=C(O)CCCCCCCCC(=O)O [Sebacic acid]	134 °C
Nc1ccc(S(=O)(=O)Nc2ncccn2)cc1 [Sulfadiazine]	259 °C
Nc1ccc(S(=O)(=O)Nc2ccccn2)cc1 [Sulfapyridine]	192 °C
O=C1C(CCS(=O)c2ccccc2)C(=O)N(c2ccccc2)N1c1ccccc1 (stereo not drawn) [Sulfinpyrazone]	136 °C
CC1=C(CC(=O)O)c2cc(F)ccc2/C1=C\c1ccc([S+](C)[O-])cc1 (stereo not drawn) [Sulindac]	184 °C
CS(=O)c1ccc(cc1)/C=C3c2ccc(F)cc2C(CC(=O)O)=C3C (stereo not drawn) [Sulindac]	183 °C
O[C@@H]1CC[C@H](C[C@H]1OC)/C=C(C)[C@H]2OC(=O)[C@@H]4CCCCN4C(=O)C(=O)[C@]3(O)O[C@H]([C@H](C[C@@H](C)CC(C)=C[C@@H](CC=C)C(=O)C[C@H](O)[C@H]2C)OC)[C@H](C[C@H]3C)OC [Tacrolimus]	126 °C
O=C(O)C(O)C(O)C(=O)O (stereo not drawn) [Tartaric acid]	210 °C
CCNc1nc(NC(C)(C)C)nc(SC)n1 [Terbutryn]	105 °C
O=C5\C=C4/C(C3CCC2(C(CCC2OC(=O)Cc1ccccc1)C3CC4)C)(C)CC5 (stereo not drawn) [Testosterone phenylacetate]	129 °C
C[C@]12CC[C@H]3[C@@H](CCC4=CC(=O)CC[C@@]43C)[C@@H]1CC[C@@H]2OC(=O)CCc1ccccc1 [Testosterone phenylpropanoate]	116 °C
c1ccc2cc3cc4ccccc4cc3cc2c1 [Tetracene]	350 °C
ClC(Cl)(Cl)Cl [Tetrachloromethane]	-23 °C
CN(C)[C@@H]1C(O)=C(C(N)=O)C(=O)[C@@]2(O)C(O)=C3C(=O)c4c(O)cccc4[C@@](C)(O)[C@H]3C[C@@H]12 [Tetracycline]	165 °C
C1CCOC1 [Tetrahydrofuran]	-108 °C
C1CCOCC1 [Tetrahydropyran]	-45 °C
Cc1nc(C)c(C)nc1C [Tetramethylpyrazine]	85 °C
c1ccc2c(c1)Sc1ccccc1S2 [Thianthrene]	159 °C
O=c1c2ccccc2sc2ccccc12 [Thiaxanthone]	210 °C
O=S(Cl)Cl [Thionyl dichloride]	-104 °C
Cc1ccc(S(=O)(=O)NC(=O)NN2CCCCCC2)cc1 [Tolazamide]	172 °C
Cc1ccccc1 [Toluene]	-93 °C

Compound	melting point
N#CC(Cl)(Cl)Cl [Trichloroacetonitrile]	-42 °C
O=C(Cl)C(Cl)(Cl)Cl [Trichloroacetyl chloride]	-146 °C
COc1cc(Cc2cnc(N)nc2N)cc(OC)c1OC [Trimethoprim]	201 °C
CO[SiH](OC)OC [Trimethoxysilane]	-115 °C
O=[O+][O-] [Trioxid-2-en-2-ium-1-ide]	-193 °C
c1ccc2c(c1)c1ccccc1c1ccccc21 [Triphenylene]	197 °C
OC(c1ccccc1)(c1ccccc1)c1ccccc1 [Triphenylmethanol]	163 °C
CN1[C@@H]2CC[C@H]1CC(=O)C2 [Tropinone]	43 °C
C/C=C/C(=O)N(CCCCCCC)C(C(=O)NC(C)(C)C)c1cc2ccccc2c2ccccc12 (stereo not drawn) [Ugi product 148B]	180 °C
CCCCCCCCCCCc1ccccc1 [Undecylbenzene]	-5 °C
C=C(C)Cn1c(N)cc(=O)n(C)c1=O [Uracil, 6-amino-3-methyl-1- (2-methylallyl)-]	175 °C
O=c1cc[nH]c(=O)[nH]1 [Uracil]	330 °C
O=c1ccn([C@@H]2O[C@@H](CO)[C@H](O)[C@H]2O)c(=O)[nH]1 [Uridine]	165 °C
C=COC(C)=O [Vinyl acetate]	-100 °C
CC=1CCCC(C)(C)C=1/C=CC(C)=CC=CC(/C)=CCO [Vitamin A]	63.5 °C
Cc1c(C)c2c(c(C)c1O)CC[C@@](C)(CCC[C@H](C)CCC[C@H](C)CCCC(C)C)O2 [Vitamin E]	2 °C
CC(=O)C=C(C)c1ccc(-c2ccccc2)cc1 [Xenipentone]	133 °C
C/C=C\C#N [Z-crotononitrile]	-72.6 °C
Nc1ccn([C@H]2CC[C@@H](CO)O2)c(=O)n1 [Zalcitabine]	212 °C
Cc1cn([C@H]2C[C@H](N=[N+]=[N-])[C@@H](CO)O2)c(=O)[nH]c1=O [Zidovudine]	109 °C
CC(c1cc2ccccc2s1)N(O)C(N)=O (stereo not drawn) [Zileuton]	145 °C
NS(=O)(=O)Cc1noc2ccccc12 [Zonisamide]	162 °C
N#CCS(=O)(=O)c1ccc(C(F)(F)F)cc1 [[4-(trifluoromethyl)phenylsulfonyl]acetonitrile]	144 °C
CC(=O)OC1CCC2C3CCC4CC(CC(=O)O)CCC4(C)C3CCC12C (stereo not drawn) [[17-(acetyloxy)androstan-3-yl]acetic acid]	152 °C
CC(=O)[C@H]1C[C@@H](CC(=O)O)C1(C)C [[(1S,3S)-3-Acetyl-2,2-dimethylcyclobutyl]acetic acid]	67.8 °C
ClCc1ccccc1CCl [a,a'-dichloro-o-xylene]	56 °C

Compound	melting point
ClC1(Cl)[C@]2(Cl)C(/Cl)=C(/Cl)[C@@]1(Cl)[C@@H]3[C@@H](Cl)[C@@H](Cl)C[C@H]23 [a-Chlordane, cis-Chlordane]	106 °C
Cl[C@H]1[C@H](Cl)[C@@H](Cl)[C@H](Cl)[C@H](Cl)[C@H]1Cl [a-hexachlorocyclohexane]	159 °C
CC(C)C1=CC2=CC[C@@H]3[C@](C)(CCC[C@@]3(C)C(=O)O)[C@H]2CC1 [abietic acid]	161 °C
CCCC(=O)Nc1ccc(OCC(O)CNC(C)C)c(C(C)=O)c1 (stereo not drawn) [acebutolol] [listing 1 of 2 here]	123 °C
CCCC(=O)Nc1ccc(OCC(O)CNC(C)C)c(C(C)=O)c1 (stereo not drawn) [acebutolol] [listing 2 of 2 here]	119 °C
c1cc2c3c(cccc3c1)CC2 [acenaphthene] [listing 1 of 2 here]	95 °C
c1cc2c3c(cccc3c1)CC2 [acenaphthene] [listing 2 of 2 here]	94 °C (2×) and 95 °C
CC=O [acetaldehyde]	-125 °C
CC(=O)Nc1ccc(O)cc1 [acetaminophen] [listing 1 of 2 here]	169 °C
CC(=O)Nc1ccc(O)cc1 [acetaminophen] [listing 2 of 2 here]	170 °C
CC(=O)Nc1ccccc1 [acetanilide] [listing 1 of 2 here]	115 °C
CC(=O)Nc1ccccc1 [acetanilide] [listing 2 of 2 here]	114 °C
CC(C)=O [acetone]	-94 °C
CC(=O)CCC(C)=O [acetonylacetone]	-6 °C
CC(=O)SCC(Cc1ccccc1)C(=O)NCC(=O)OCc1ccccc1 (stereo not drawn) [acetorphan]	89 °C
CC(=O)Br [acetyl bromide]	-96 °C
CCC(C(=O)NC(=O)NC(C)=O)c1ccccc1 (stereo not drawn) [acetylpheneturide]	100 °C
CC(=O)Oc1ccccc1C(=O)O [acetylsalicylic acid]	135 °C
CC(=O)Oc1ccccc1C(=O)O [acetylsalicylicacid]	142 °C
CC1(c2ccccc2)OC(C(=O)O)=CC1=O (stereo not drawn) [acifran]	176 °C
COc1cc(C)c(C=CC(C)=CC=CC(C)=CC(=O)O)c(C)c1C [acitretin]	228 °C
C=CC=O [acrolein]	-87 °C
C1C2CC3CC1CC(C2)C3 [adamantane]	268 °C
Nc1ncnc2c1ncn2[C@@H]1O[C@H](CO)[C@@H](O)[C@H]1O [adenosine]	235 °C
O=C(O)CCCCC(=O)O [adipic_acid]	153 °C
N#CCCCCC#N [adiponitrile]	2 °C

Compound	melting point
OC[C@@H](O)[C@@H](O)[C@@H](O)CO [adonitol]	103 °C
CCCSc1ccc2[nH]c(NC(=O)OC)nc2c1 [albendazole]	208 °C
C=CCN [allylamine]	-88 °C
C=CCc1ccccc1 [allylbenzene]	-50 °C
N#CC(c1ccccc1)N1CCOCC1 (stereo not drawn) [alpha-(4-morpholinyl)phenylacetonitrile]	69 °C
C=C(C)c1ccccc1 [alpha-methylstyrene]	-23 °C
CC1=CCC(C(C)(C)O)CC1 (stereo not drawn) [alpha-terpineol]	32 °C
NC(c1ccccc1)c1ccccc1 [aminodiphenylmethane]	12 °C
Cc1c(N(C)C)c(=O)n(-c2ccccc2)n1C [aminopyrine]	108 °C
NC1=NCC(c2ccccc2)O1 (stereo not drawn) [aminorex]	136 °C
C=C(C)Cn1c(N)cc(=O)n(C)c1=O [amisometradine]	175 °C
CN(C)CCC=C1c2ccccc2CCc2ccccc21 [amitriptyline]	196 °C
CCC1(CCC(C)C)C(=O)NC(=O)NC1=O [amobarbital]	156 °C
CC(Cc1ccccc1)NC(C#N)c1ccccc1 (stereo not drawn) [amphetaminil]	85 °C
CCCCCOC(C)=O [amyl_acetate]	-100 °C
CC12CCC=C1C1CCC3CC(=O)CCC3(C)C1CC2 (stereo not drawn) [androst-14-en-3-one]	116 °C
CCOC(=O)C1(c2ccccc2)CCN(CCc2ccc(N)cc2)CC1 [anileridine]	83 °C
COc1ccccc1 [anisole]	-37 °C
c1ccc(CN(CC2=NCCN2)c2ccccc2)cc1 [antazoline]	120 °C
Nc1ccccc1C(=O)O [anthranilic acid]	147 °C
Cc1cc(=O)n(-c2ccccc2)n1C [antipyrine] [listing 1 of 2 here]	113 °C
Cc1cc(=O)n(-c2ccccc2)n1C [antipyrine] [listing 2 of 2 here]	112 °C
CCCCCCCCCCCCCCCCCCCC(=O)O [arachidic acid]	75 °C
OC[C@H]1O[C@@H](Oc2ccc(O)cc2)[C@H](O)[C@@H](O)[C@@H]1O [arbutin]	198 °C
O=C1O[C@H]([C@@H](O)CO)C(O)=C1O [ascorbic acid]	191 °C
